# Experimental data taken from patent US20230165183A1, “METHODS AND COMPOSITIONS FOR IMPROVED SEED GROWTH” (Cyprus University of Technology, priority 2021, published 2023).
# Read-outs that look alike come from different tables or passages of the source.
# Tests used:
# [1] = tested on: Maize; conditions: cited from earlier work
# [2] = tested on: Safflower; conditions: Drought; cited from earlier work
# [3] = tested on: Wheat; conditions: cited from earlier work
# [4] = tested on: Rice; conditions: cited from earlier work
# [5] = tested on: tomato seeds; experiment: Germination percentage of primed/coated tomato seeds five days after sowing; type: in vivo; conditions: tomato seeds primed with melatonin (Mel 1=50 μM, Mel 2=100 μM), 5 DAS, vs unprimed seeds; p<0.05
# Method: FIG. 4 depicts germination percentage five days after sowing (5 DAS) in tomato seeds coated (pre-treated) with melatonin concentrations (Mel 1=50 μM, Mel 2=100 μM) in comparison with unprimed seeds (non-treated) and hydrogel coated seeds (Hydro).
# Tomato seeds were primed with melatonin at the following concentrations: 5 μM, 10 μM, 15 μM, 25 μM, 50 μM, 100 μM, 200 μM, and 300 μM. Priming was performed by soaking the seeds in the desired melatonin concentration, then vacuum-drying the seeds.
# FIG. 4 depicts germination percentage five days after sowing (5 DAS) in tomato seeds coated pre-treated with melatonin concentrations (Mel 1=50 μM, Mel 2=100 μM) in comparison with unprimed seeds (Non-treated) and hydrogel coated seeds (Hydro).
# [6] = tested on: Pigeon Pea; conditions: Calcium; cited from earlier work
# [7] = tested on: Corn; conditions: Salt; cited from earlier work
# [8] = tested on: Maize; conditions: Salt; cited from earlier work
# [9] = tested on: Sorghum; conditions: Drought; cited from earlier work
# [10] = tested on: Milk Thistle; conditions: Salt; cited from earlier work
# [11] = tested on: Wheat; conditions: Salt; cited from earlier work
# [12] = tested on: Pot Marigold; conditions: Salt; cited from earlier work
# [13] = tested on: Chickpea; conditions: Drought; cited from earlier work
compound,measurement,setting,value
"O=C(O)c1ccccc1O [SA, salicyclic acid]",Plant Response to SA,[1]; Chilling,Enhanced antioxidant activity
same,Plant Response to SA,[1]; Lead,Increased nitric oxide content
same,Plant Response to SA,[2],Enhanced antioxidant activity
same,Plant Response to SA,[3]; Drought,Balanced nutrient uptake
same,Plant Response to SA,[3]; Osmotic,Increased tolerance
same,Plant Response to SA,[3]; Salinity,Decreased electrolyte leakage
same,Plant Response to SA,[4]; Chilling,Enhanced antioxidant activity
same,Plant Response to SA,[4]; Chromium,Increased chlorophyll content
COc1ccc2[nH]cc(CCNC(C)=O)c2c1 [melatonin],germination percentage,[5],significantly increased germination percentage
gibberellin [GA],Plant Response to GA,[6],Increased germination
same,Plant Response to GA,[7],Increased tissue water content
same,Plant Response to GA,[8],Alleviated salt stress
same,Plant Response to GA,[9],Increased CAT and APX activities
same,Plant Response to GA,[10],Alleviated salt stress
same,Plant Response to GA,[11],Increased tolerance
same,Plant Response to GA,[12],Increased tolerance
same,Plant Response to GA,[13],Increased relative water content
